Experimental data published in patent publication US20070172843A1, “MEK interacting protein 1 as diagnostic and therapeutic target for breast cancer treatment and prevention” (priority 2005, published 2007).
One block for each molecule: values may come before it.

Columns and labels:
[1] = tested on: Flag-ER; test: Inducible 3' Flag-ER expression (ARGENT system) in stably transfected MCF-7 derivative, Western blotting; assay type: cell-based, human; details: treated six hours, Western blot, FIG. 2
Description: To tightly regulate expression of the Flag-ER gene, the Ariad “ARGENT” inducible gene expression system (25) (www.ariad.com) was used. This system allows for tight and specific regulation of a target gene.
To identify physiologically relevant ER-interacting proteins, the MCF-7 cell line was used. […] First, a stable derivative of MCF-7 in which target genes can be inducibly expressed was constructed. The construction of this cell line and an example of its use have been previously described (27). Next, the 5′ and 3′ Flag-ER constructs were subcloned into the target vector, and these constructs were stably transfected into the MCF-7 derivative described above. […] Stable transfectants containing either 3′ Flag-ER or empty vector were treated as indicated (in FIG. 2) for six hours, and lysates were analyzed by Western blotting (WB) with antibodies to ER, Flag, or Actin.

[2] = molecular target: T1, ER/MP1 complex (Homo sapiens, UniProt P03372); details: MCF-7 cells pre-treated in absence of E2, then ligand for 2 h; IP with ER or MP1 antibody; FIG. 4
T1 sequence (P03372 1-595): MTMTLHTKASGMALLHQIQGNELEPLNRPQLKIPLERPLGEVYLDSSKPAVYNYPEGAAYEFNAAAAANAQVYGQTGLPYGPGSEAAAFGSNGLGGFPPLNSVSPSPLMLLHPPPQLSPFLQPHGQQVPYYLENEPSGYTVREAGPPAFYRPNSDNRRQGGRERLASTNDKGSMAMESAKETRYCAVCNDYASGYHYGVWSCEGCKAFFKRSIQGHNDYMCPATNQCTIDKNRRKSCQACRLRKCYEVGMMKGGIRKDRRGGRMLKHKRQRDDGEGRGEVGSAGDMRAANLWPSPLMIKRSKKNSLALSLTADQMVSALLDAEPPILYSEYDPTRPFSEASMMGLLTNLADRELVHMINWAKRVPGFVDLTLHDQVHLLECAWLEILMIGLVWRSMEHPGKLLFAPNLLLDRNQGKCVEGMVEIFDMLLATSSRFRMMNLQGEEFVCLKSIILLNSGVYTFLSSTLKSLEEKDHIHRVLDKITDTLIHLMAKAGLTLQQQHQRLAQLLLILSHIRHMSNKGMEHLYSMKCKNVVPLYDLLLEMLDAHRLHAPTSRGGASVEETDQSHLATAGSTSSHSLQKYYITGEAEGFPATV
Experimental: One limitation to inducible expression systems is that proteins are expressed at very high levels, and complexes may form that are not physiologically relevant. […] Cell lysates were prepared and precipitated with either 0-ER (Labvision/NeoMarker) or 0-MP1 (Santa Cruz) antibody and protein G agarose beads.

[3] = molecular target: T2, ER (Homo sapiens, UniProt P03372); details: MCF-7 cells, 24 h in medium lacking E2, ligand for 3 h; MP1 vs empty vector; FIG. 5
T2 sequence (P03372 1-595): T1 sequence (P03372 1-595)

[4] = tested on: MCF-7 cells; test: BrdU incorporation proliferation assay in MCF-7 cells transfected with MP1 expression vector or empty vector; assay type: cell-based, human; details: ligand for 48 h, BrdU for the final 5 h, FIG. 6
Experimental: The ER has both genomic and non-genomic activities, and its activity in transcription assays may not fully represent its ability to regulate cell proliferation. […] To label proliferating cells, BrdU (which is incorporated into DNA during DNA synthesis) was added to the cultures for the final 5 h of incubation. Cells were then fixed, labeled with a fluorescent anti-BrdU antibody, and the percentage of cells that incorporated BrdU (ie, were proliferating) was determined.

Compound: CO[C@H]1[C@@H](O)[C@H](C)C[C@H](C)/C=C/C=C/C=C(\C)[C@@H](c2c[nH]c3c(C)cccc23)C[C@@H]2CC[C@@H](C)[C@@](O)(O2)C(=O)C(=O)N2CCCC[C@H]2C(=O)O[C@H]([C@H](C)C[C@@H]2CC[C@@H](O)[C@H](OC)C2)C[C@H](O)[C@H](C)/C=C(\C)[C@H]1O [AP21967]
- Flag-ER expression from the transfected gene ([1]; cells containing 3' Flag-ER): highly induced
- endogenous ER expression ([1]; vector containing cells): did not alter this expression

- co-precipitation of MP1 with ER (ER/MP1 complex formation) [2]: not
- effect of MP1 co-transfection on ER activity (ERE-Luc) in the presence of ligand [3]: not
Compound: C[C@]12CC[C@@H]3c4ccc(O)cc4C[C@@H](CCCCCCCCC[S+]([O-])CCCC(F)(F)C(F)(F)F)[C@H]3[C@@H]1CC[C@@H]2O (some centres unmarked) [ICI, ICI 182,780]

Compound: CC/C(=C(\c1ccccc1)c1ccc(OCCN(C)C)cc1)c1ccccc1 [Tam, tamoxifen]
- effect of MP1 overexpression on proliferation (percentage of cells that incorporated BrdU) in the presence of ligand [4]: dramatically increases proliferation
